Data taken from patent US20160369234A1, “CONVERSION OF SOMATIC CELLS TO INDUCED REPROGRAMMED NEURAL STEM CELLS (IRNSCS)” (Hoffmann-La Roche Inc., priority 2010, published 2016).

Tests used:
Format in all cases: cell-based
[1] = test system: Human fibroblasts IMR90; assay: Generation of GFP+ irNSC neurospheres, Fasudil versus Balanol-like-324 compound in induction medium (FIG. 11)
Procedure: FIG. 11: Comparison of Fasudil versus Balanol-like-324 compound stimulation to generate irNSC neurospheres. Human fibroblasts IMR90 were trypsinized and infected in a small volume with: Sox2, Bmi1, nestin GFP reporter using the induction medium (NeuroCult® NS-A Proliferation Kit (Human, StemCells Technologies) with FGF, EGF BDNF 20 ng/ml; Heparin 2 μg/ml; Polybrene 4 μg/ml) supplemented with Fasudil 10 μM (hatched graph) or Balanol-like-324 compound 2 μM (black graph). Fibroblasts were plated in a normal tissue culture plate at a concentration of 10000-30000 cells/cm^2. Day 1: Media change with fresh induction medium. Day 4: The GFP+ neurospheres bigger than 50 μm were counted.
Induction Medium: N2B27 (N2B27 is a 1:1 mixture of DMEM/F12 (Gibco, Paisley, UK) supplemented with N2 and B27 (both from Gibco) supplemented with human EGF (Peprotech) 30 ng/ml, human FGF2 30 ng/ml (Peprotech), human BDNF (Roche) 20 ng/ml and Fasudil (Calbiochem) 10 μM or Balanol-like-324 compound (N-{(3R,4R)-4-[4-(2-Fluoro-6-hydroxy-3-methoxy-benzoyl)-benzoylamino]-azepan-3-yl}-4-hydroxy-3,5-dimethyl-benzamide) 2 μM.
1. Generation of the irNSCs: • 200.000 IMR90 human fibroblasts infected with the lentiviruses for different genes combination (multiplicity of infection (M.O.I.) used for each single lentivirus 30) and the reporter nestin GFP lentivirus (M.O.I. used 10) in an eppendorf with 300 μl induction medium with polybrene (hexadimethrine bromide, Sigma) 4 μg/ml. • Incubate at room temperature for 15 min. • Plate the 300 μl in 1.7 ml induction medium in a well of a 6-well-plate tissue treated • Day 1, renew the 2 ml of induction medium/each well • Day 3, harvest of the neurospheres collecting carefully the 2 ml with the floating spheres • Expand the neurospheres2. […]

[2] = test system: Human fibroblasts IMR90; assay: Pre-treatment of human fibroblasts with Valproic Acid before infection, yield of GFP+ irNSC neurospheres (FIG. 12); conditions: VPA 1 mM pre-treatment 48 hours vs without; Day 7; n=3
Procedure: FIG. 12: Pre-treatment of human fibroblasts with Valproic Acid (VPA) improves the yield of GFP+ irNSC neurospheres. Human fibroblasts IMR90 were pre-treated for 48 hours with or without the HDAC inhibitor Valproic Acid (2-propyl-pentanoic acid, monosodium salt) (1 mM) prior infection with: Sox2, Bmi1, nestin GFP reporter. Induction medium (NeuroCult® NS-A Proliferation Kit (Human, StemCells Technologies) with FGF, EGF BDNF 20 ng/ml; Heparin 2 μg/ml; Balanol-like-324 2 μM). Day 7: The Neurospheres bigger than 50 μm were counted (Panel A) and the average number of GFP+ irNSC per neurosphere is reported (Panel B). Representative pictures for the irNSCs neuropheres generated with the VPA pre-treatment (Panel C).
To increase the yield of irNSCs, human fibroblasts were pretreated with or without the HDAC inhibitor Valproic Acid (VPA, 2-propyl-pentanoic acid, monosodium salt). Towards this end, the human fibroblasts were incubated in DMEM/F12 supplemented with FBS 10% and L-glutamine supplemented with 1 mM VPA prior to infection (FIG. 12).

[3] = test system: irNSC neurospheres from human fibroblasts IMR90; assay: Expansion of irNSC neurospheres with or without Fasudil in expansion medium (FIG. 9); conditions: expansion medium with Fasudil vs without; Day 15
Procedure: FIG. 9: Generation of a batch of irNSC neurospheres for expansion and characterization. 3.6 million human fibroblasts IMR90 were trypsinized and infected in a small volume with: Sox2, Bmi1, nestin GFP reporter using the induction medium (N2B27 with FGF, EGF 30 ng/ml BDNF 20 ng/ml) supplemented with Fasudil 10 μM and Polybrene 4 μg/ml. From Day 4 to Day 8: The GFP+ neurospheres bigger than 50 μm were harvested and further used for expansion. Half of the neurospheres have been expanded using the expansion medium (N2B27 with FGF, EGF 30 ng/ml BDNF 20 ng/ml) with Fasudil and the other half without Fasudil.
The irNSCs have a typical NSC morphology and were Sox2 and Nestin positive (FIG. 10).
Expansion Medium: N2B27 supplemented with human EGF (Peprotech) 30 ng/ml, human FGF2 30 ng/ml (Peprotech), human BDNF (Roche) 20 ng/ml, or
1. […]

[4] = test system: human fibroblasts; assay: Reprogramming of human fibroblasts to irNSCs with or without Fasudil in induction medium, neurosphere count (FIG. 6); conditions: Fasudil added to induction medium, nestin reporter lentivirus; day 3
Text: The method can be illustrated by reference to FIG. 1 herein, which depicts a method according to the invention being used for converting human fibroblasts to neural stem cells (NSCs). In this method human fibroblast were trypsinized at day 0, counted and their viability determined. Between 1.0×10^5-3.0×10^5 trypsinized fibroblasts were then resuspended in the induction medium and the combination of genes delivered as lentiviruses. At the induction medium polybrene (hexadimethrine bromide) was added to increase the efficiency of the lentiviruses transduction. The infection was performed for 15 minutes in an eppendorf tube. In combination with the genes, a human Nestin GFP reporter was used. Nestin is a well known marker expressed specifically in NSCs. In the nestin reporter the fluorescent protein GFP is under expression of the human nestin promoter (FIG. 2), therefore it allows an easy screen for induced reprogrammed neural stem cells (irNSCs) GFP+.
The infected cells were plated in tissue culture plates using a concentration of 10000-30000 cells/cm^2 in the appropriate volume of induction medium. At day 1 the total induction medium was renewed. It was possible to identify some irNSC GFP+ (FIG. 3) with a clear change in morphology compared to the human fibroblasts. The irNSCs GFP+ acquired a bipolar and elongated morphology with a more condensed cytoplasm, typical of NSCs. […]

COc1ccc(O)c(C(=O)c2ccc(C(=O)N[C@@H]3CCCNC[C@H]3NC(=O)c3cc(C)c(O)c(C)c3)cc2)c1F [Balanol-like-324 compound, N-{(3R,4R)-4-[4-(2-Fluoro-6-hydroxy-3-methoxy-benzoyl)-benzoylamino]-azepan-3-yl}-4-hydroxy-3,5-dimethyl-benzamide]
reproducibility of neurosphere generation versus Fasudil ([1]; Balanol-like-324 2 μM vs Fasudil 10 μM, Day 4, STDEV, n=3): better reproducibility
increase in efficiency of the neurospheres generation (GFP+ neurospheres bigger than 50 μm) versus Fasudil ([1]; Balanol-like-324 2 μM vs Fasudil 10 μM, Sox2, Bmi1, nestin GFP reporter, Day 4, n=3): ~1.9 fold
yield of GFP+ neurospheres ([1]; FIG. 11, Rock kinase inhibitor in induction medium): increases the yield

CCCC(CCC)C(=O)[O-].[Na+] [VPA, 2-propyl-pentanoic acid, monosodium salt]
increase in number of GFP+ irNSCs per neurosphere [2]: 2.1 fold
number of neurospheres bigger than 50 μm [2]: did not significantly affect

O=S(=O)(c1cccc2cnccc12)N1CCCNCC1 [Fasudil, 1-(5-Isoquinolinesulfonyl)homopiperazine]
neurosphere morphology [3]: better morphology and clear and sharp borders
generation of neurospheres [4]: generation of neurospheres (around 50 μm)
